Measured values as given in patent publication US12324927B2, “Methods and systems for photodynamic therapy calculations” (THE TRUSTEES OF THE UNIVERSITY OF PENNSYLVANIA, priority 2018, dated 2025).

Key:
[1] = system: radiation induced fibrosarcoma (RIF) tumors; experiment: BPD-mediated vascular PDT of RIF tumors: explicit dosimetry and tumor regrowth (cure index); format: in vivo, mice
Protocol: RIF cells were cultured and 30 μl were injected at 1×10^7 cells/ml intradermally over the right shoulders of 6 to 8 weeks old female C3H mice (NCI-Frederick, Frederick, Maryland), as described previously^10-12. Animals were under the care of the University of Pennsylvania Laboratory Animal Resources. All studies were approved by the University of Pennsylvania Institutional Animal Care and Use Committee. Tumors were treated at a size of ˜3 to 5 mm in diameter. Fur within the region of tumor inoculation was clipped prior to injection of cells, and the treatment area was depilated with Nair (Church & Dwight Co., Inc., Ewing, New Jersey) at least 24 h before measurements. Mice were provided a chlorophyll-free (alfalfa-free) rodent diet (Harlan Laboratories Inc., Indianapolis, Indiana) starting at least 10 days prior to treatment to eliminate the fluorescence signal from chlorophyll-breakdown products, which have a similar emission range to the BPD fluorescence spectra used to determine the concentration of BPD in the tumor. During the delivery of PDT, mice were kept under anesthesia on a heat pad at 38° C.
PDT was delivered using an optical fiber with a microlens attachment coupled to a diode laser. A 690 nm laser (B&W Tek Inc., Newark, Delaware) was used for PDT after a 15 min drug-light interval. The in-air fluence rate (ϕair) is defined as the calculated irradiance determined by the laser power divided by the treatment area (1 cm diameter spot size). The in-air fluence was calculated by multiplying the in-air fluence rate by the treatment time. […]
The in vivo tissue oxygen partial pressure pO2 was measured during PDT treatment using a phosphorescence-based […] (OxyLite Pro, Oxford Optronix, Oxford, United Kingdom). […] The ROS concentration ([ROS]) was calculated by multiplying the measured pO2 with the […] solubility in tissue, which is 1.295 μM/mmHg.^5 Measured [ROS]0 and [ROS](t) were used to calculate reacted oxygen species using the macroscopic singlet oxygen model.^14,15 […]
Tumor volumes were measured daily after PDT. […]

[2] = as printed in b218; cited from earlier work

change of BPD concentration before vs after PDT treatment ([1]; in tumor, FIG. 18): not significant changes
Structure (SMILES): C=Cc1c(C)c2cc3nc(cc4[nH]c(cc5nc(cc1[nH]2)C(C)=C5CCC(=O)O)c(CCC(=O)OC)c4C)[C@@]1(C)C3=CC=C(C(=O)OC)[C@H]1C(=O)OC [BPD, benzoporphyrin derivative monoacid ring A]
[ROS]rx threshold dose smaller than value for conventional BPD-mediated PDT using DLI of 3 hrs ([1]; mouse, in vivo): about 4.3 times
threshold dose for [ROS]rx ([1]; vascular BPD-PDT, DLI 15 min): 0.23 mM
β [2]: 11.9 µM
